pIC50: −log10 of the molar value.

Type in all cases: functional, cell-based
What all share (settings): Homo sapiens

Assay [1] deals with A549. Kind of assay: Inhibitory activity against A549 lung cancer cell line.
In assay [2] the test system is A549. The experiment in a line: Inhibitory activity against Taxol-resistant A549 lung cancer cell line.
In assay [3] the test system is KB. Kind of assay: Inhibitory activity against KB nasopharynx cancer cell line.
Assay [4] concerns KB. The experiment in a line: Inhibitory activity against Vincristine-resistant KB nasopharynx cancer cell line.
Assay [5] has as its system MCF7. The experiment in a line: Inhibitory activity against Adriamycin-resistant MCF-7 breast cancer cell line.
In assay [6] the test system is MCF7. The experiment in a line: Inhibitory activity against MCF-7 breast cancer cell line.

By pIC50 is commonly meant the IC50 on a negative log10 scale, so that one unit is a factor of ten. A high value points to a small IC50. With `COc1ccc(C(=O)N[C@H]2C3[C@](C)(C(=O)[C@H](OC(C)=O)C4=C(C)[C@@H](OC(=O)[C@@H](O)[C@@H](NC(=O)OC(C)(C)C)c5ccccc5)C[C@]2(O)C4(C)C)[C@@H](O)C[C@H]2OC[C@@]32OC(C)=O)cc1` (some centres undefined), the pIC50 with A549 [1] is < 7.00; in the assay with A549 [2], < 6.00; in the assay with KB [3] it was < 7.00; in the assay with KB [4] it was < 6.00.

In the case of `CC(=O)O[C@H]1C(=O)[C@@]2(C)C([C@H](NC(=O)c3ccccc3)[C@]3(O)C[C@H](OC(=O)[C@@H](O)[C@@H](NC(=O)OC(C)(C)C)c4ccccc4)C(C)=C1C3(C)C)[C@]1(OC(C)=O)CO[C@@H]1C[C@@H]2O` (some centres undefined), the pIC50 was 6.60 in the assay with A549 [1] and 6.82 in the assay on KB [3].

In the case of `CC(=O)O[C@H]1C(=O)[C@@]2(C)C([C@H](NC(=O)c3cccc(Cl)c3)[C@]3(O)C[C@H](OC(=O)[C@@H](O)[C@@H](NC(=O)OC(C)(C)C)c4ccccc4)C(C)=C1C3(C)C)[C@@](CO)(OC(C)=O)[C@@H](O)C[C@@H]2O` (some centres undefined), the pIC50 in the assay on A549 [1] is < 7.00; in the assay on A549 [2] it was < 6.00; in the assay on KB [3], < 7.00; with KB [4], < 6.00.

Turning to `CC(=O)O[C@H]1C(=O)[C@@]2(C)C([C@H](NC(=O)OCc3ccccc3)[C@]3(O)C[C@H](OC(=O)[C@@H](O)[C@@H](NC(=O)OC(C)(C)C)c4ccccc4)C(C)=C1C3(C)C)[C@]1(OC(C)=O)CO[C@@H]1C[C@@H]2O` (some centres undefined), the negative logarithm of the IC50 (pIC50) was < 7.00 in the assay on A549 [1], < 6.00 with A549 [2], < 7.00 in the assay on KB [3] and < 6.00 in the assay with KB [4].

`CC(=O)O[C@H]1C(=O)[C@@]2(C)C([C@H](NC(=O)c3cccc(Cl)c3)[C@]3(O)C[C@H](OC(=O)[C@@H](O)[C@@H](NC(=O)OC(C)(C)C)c4ccccc4)C(C)=C1C3(C)C)[C@]1(OC(C)=O)CO[C@@H]1C[C@@H]2O` (some centres undefined): the pIC50 is 7.02 in the assay on A549 [1]; 5.96 in the assay with A549 [2]; 7.11 with KB [3]; < 6.00 in the assay on KB [4]; < 5.35 in the assay on MCF7 [5]; 6.96 in the assay on MCF7 [6].

For `CC(=O)O[C@H]1C(=O)[C@@]2(C)C([C@H](NC(=O)c3ccc(Cl)cc3)[C@]3(O)C[C@H](OC(=O)[C@@H](O)[C@@H](NC(=O)OC(C)(C)C)c4ccccc4)C(C)=C1C3(C)C)[C@@](CO)(OC(C)=O)[C@@H](O)C[C@@H]2O` (some centres undefined), the pIC50 was < 7.00 in the assay with A549 [1], < 6.00 with A549 [2], < 7.00 in the assay on KB [3] and < 6.00 in the assay on KB [4].

Turning to `COc1cccc(C(=O)N[C@H]2C3[C@](C)(C(=O)[C@H](OC(C)=O)C4=C(C)[C@@H](OC(=O)[C@@H](O)[C@@H](NC(=O)OC(C)(C)C)c5ccccc5)C[C@]2(O)C4(C)C)[C@@H](O)C[C@H]2OC[C@@]32OC(C)=O)c1` (some centres undefined), the pIC50 in the assay on A549 [1] is 7.08; in the assay with A549 [2] it was 6.00; in the assay with KB [3], 7.13; in the assay on KB [4], 5.96; in the assay on MCF7 [5] it was < 5.34; with MCF7 [6] it was 7.14.

For `CC(=O)O[C@H]1C(=O)[C@@]2(C)C([C@H](NC(=O)c3ccc(Cl)cc3)[C@]3(O)C[C@H](OC(=O)[C@@H](O)[C@@H](NC(=O)OC(C)(C)C)c4ccccc4)C(C)=C1C3(C)C)[C@]1(OC(C)=O)CO[C@@H]1C[C@@H]2O` (some centres undefined), the pIC50 with A549 [1] was < 7.00; with A549 [2], < 6.00; with KB [3], < 7.00; with KB [4], < 6.00.

For `CC(=O)O[C@H]1C(=O)[C@@]2(C)C([C@H](NC(=O)c3ccccc3)[C@]3(O)C[C@H](OC(=O)[C@@H](O)[C@@H](NC(=O)OC(C)(C)C)c4ccccc4)C(C)=C1C3(C)C)[C@@](CO)(OC(C)=O)[C@@H](O)C[C@@H]2O` (some centres undefined), the pIC50 is < 7.00 in the assay with A549 [1], < 6.00 in the assay with A549 [2], < 7.00 in the assay with KB [3] and < 6.00 with KB [4].

In the case of `CC(=O)O[C@H]1C(=O)[C@@]2(C)C([C@H](NC(=O)c3ccc([N+](=O)[O-])cc3)[C@]3(O)C[C@H](OC(=O)[C@@H](O)[C@@H](NC(=O)OC(C)(C)C)c4ccccc4)C(C)=C1C3(C)C)[C@]1(OC(C)=O)CO[C@@H]1C[C@@H]2O` (some centres undefined), the pIC50 with A549 [1] is < 7.00; in the assay with A549 [2] it was < 6.00; with KB [3], < 7.00; with KB [4], < 6.00.

Take `CC(=O)O[C@@]12CO[C@@H]1C[C@H](O)[C@@]1(C)C(=O)[C@H](O)C3=C(C)[C@@H](OC(=O)[C@H](O)[C@@H](NC(=O)OC(C)(C)C)c4ccccc4)C[C@@](O)([C@@H](OC(=O)c4ccccc4)[C@H]21)C3(C)C` [DOCETAXEL]: the pIC50 with A549 [1] is 8.39; with A549 [2], 7.01; in the assay with KB [3] it was 8.36; in the assay on KB [4] it was 6.70; with MCF7 [5], 5.38; in the assay on MCF7 [6], 8.10.

For `CC(=O)O[C@H]1C(=O)[C@@]2(C)[C@H]([C@H](OC(=O)c3ccccc3)[C@]3(O)C[C@H](OC(=O)[C@H](O)[C@@H](NC(=O)c4ccccc4)c4ccccc4)C(C)=C1C3(C)C)[C@]1(OC(C)=O)CO[C@@H]1C[C@@H]2O` [PACLITAXEL], the pIC50 in the assay with A549 [1] is 7.92; in the assay with A549 [2], 6.02; in the assay on KB [3] it was 8.04; in the assay with KB [4] it was 5.77; in the assay on MCF7 [5], < 5.22; with MCF7 [6], 8.26.

The values above are taken from ChEMBL document CHEMBL1135135, “Synthesis and cytotoxicity of 2alpha-amido docetaxel analogues” (Bioorg Med Chem Lett, 2002).
